The term inhibition denotes the change of the read-out against control, counted positive when it falls. In general, IC50 refers to the concentration that inhibits the measured activity by half. Low readings indicate inhibition by little substance, high ones a need for much substance.

Molecules are shown by their SMILES. Active and inactive are the calls of the source. The rule behind the calls is not given here.

Assay [1] addresses T1, Histone deacetylase 3 (Homo sapiens, UniProt O15379). In words: Inhibition of HDAC3 at 10 uM.
Assay [2] has as its target T2, Histone deacetylase 4 (Homo sapiens, UniProt P56524). In words: Inhibition of wild type HDAC4 at 10 uM.
The subject of assay [3] is T3, Histone deacetylase 4 (Homo sapiens), P56524 [H976Y].
T3 sequence (whole entry): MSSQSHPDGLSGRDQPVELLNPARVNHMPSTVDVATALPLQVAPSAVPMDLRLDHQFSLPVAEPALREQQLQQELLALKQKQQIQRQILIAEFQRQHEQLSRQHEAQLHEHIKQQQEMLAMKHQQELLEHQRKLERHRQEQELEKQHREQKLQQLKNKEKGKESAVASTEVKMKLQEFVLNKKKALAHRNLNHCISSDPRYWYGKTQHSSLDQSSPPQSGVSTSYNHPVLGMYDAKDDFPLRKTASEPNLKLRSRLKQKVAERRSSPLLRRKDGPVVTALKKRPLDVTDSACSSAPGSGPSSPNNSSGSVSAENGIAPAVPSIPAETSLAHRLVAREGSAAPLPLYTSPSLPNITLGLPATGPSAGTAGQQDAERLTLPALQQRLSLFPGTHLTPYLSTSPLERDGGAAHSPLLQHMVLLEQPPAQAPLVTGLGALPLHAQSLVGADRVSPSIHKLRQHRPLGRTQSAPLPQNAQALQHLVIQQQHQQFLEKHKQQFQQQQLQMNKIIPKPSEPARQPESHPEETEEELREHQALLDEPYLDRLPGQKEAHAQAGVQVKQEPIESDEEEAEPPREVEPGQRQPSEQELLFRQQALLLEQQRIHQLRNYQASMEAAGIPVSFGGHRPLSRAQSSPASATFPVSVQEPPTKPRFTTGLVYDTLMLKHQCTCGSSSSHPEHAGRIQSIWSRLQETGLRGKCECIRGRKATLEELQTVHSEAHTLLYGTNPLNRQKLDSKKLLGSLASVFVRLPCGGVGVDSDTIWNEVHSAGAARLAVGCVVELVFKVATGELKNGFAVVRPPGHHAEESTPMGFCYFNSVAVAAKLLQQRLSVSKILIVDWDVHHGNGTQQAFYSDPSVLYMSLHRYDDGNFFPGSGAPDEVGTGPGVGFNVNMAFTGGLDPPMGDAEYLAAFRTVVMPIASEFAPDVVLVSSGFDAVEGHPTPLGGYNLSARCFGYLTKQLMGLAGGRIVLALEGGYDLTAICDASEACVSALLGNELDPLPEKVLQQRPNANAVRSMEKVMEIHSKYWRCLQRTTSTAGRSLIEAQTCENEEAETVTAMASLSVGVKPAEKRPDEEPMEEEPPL
In words: Inhibition of HDAC4GOF mutant at 10 uM.

For assay [4], the target named is T4, Protein deacetylase HDAC6 (Homo sapiens) (UniProt Q9UBN7).
T4 sequence (whole entry): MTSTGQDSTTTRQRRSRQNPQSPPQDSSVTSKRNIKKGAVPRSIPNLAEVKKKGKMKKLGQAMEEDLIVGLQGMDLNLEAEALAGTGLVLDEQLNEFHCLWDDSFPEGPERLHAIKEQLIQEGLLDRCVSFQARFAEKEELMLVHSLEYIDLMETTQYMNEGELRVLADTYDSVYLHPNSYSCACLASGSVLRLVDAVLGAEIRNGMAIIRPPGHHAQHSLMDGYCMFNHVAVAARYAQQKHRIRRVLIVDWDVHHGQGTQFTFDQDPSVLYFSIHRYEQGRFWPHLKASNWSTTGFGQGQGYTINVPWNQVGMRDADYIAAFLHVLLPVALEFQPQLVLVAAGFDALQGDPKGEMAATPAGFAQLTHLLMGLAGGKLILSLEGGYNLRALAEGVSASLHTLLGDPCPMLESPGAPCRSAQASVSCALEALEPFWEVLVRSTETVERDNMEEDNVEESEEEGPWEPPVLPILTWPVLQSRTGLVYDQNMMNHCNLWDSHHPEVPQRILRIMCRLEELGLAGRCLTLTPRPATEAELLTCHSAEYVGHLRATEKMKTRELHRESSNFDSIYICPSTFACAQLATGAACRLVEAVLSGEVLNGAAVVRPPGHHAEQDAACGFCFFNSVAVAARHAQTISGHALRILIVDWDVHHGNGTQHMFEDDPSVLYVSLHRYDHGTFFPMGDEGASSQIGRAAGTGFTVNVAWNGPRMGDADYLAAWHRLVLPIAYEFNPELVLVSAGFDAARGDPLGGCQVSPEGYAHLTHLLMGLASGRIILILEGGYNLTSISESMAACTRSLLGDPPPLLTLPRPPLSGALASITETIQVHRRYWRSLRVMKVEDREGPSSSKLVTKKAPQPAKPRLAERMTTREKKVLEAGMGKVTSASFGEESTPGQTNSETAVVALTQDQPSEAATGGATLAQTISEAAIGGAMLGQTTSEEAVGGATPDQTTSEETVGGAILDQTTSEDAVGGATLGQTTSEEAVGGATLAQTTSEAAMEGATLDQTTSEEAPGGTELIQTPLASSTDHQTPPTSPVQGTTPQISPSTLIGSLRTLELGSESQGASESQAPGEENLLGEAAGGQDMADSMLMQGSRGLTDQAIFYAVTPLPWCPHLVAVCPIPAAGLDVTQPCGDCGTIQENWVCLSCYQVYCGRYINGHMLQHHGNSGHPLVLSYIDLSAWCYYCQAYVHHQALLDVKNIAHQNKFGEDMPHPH
In words: Inhibition of HDAC6 at 10 uM.

For assay [5], the target named is T5, Histone deacetylase 1 (Homo sapiens, UniProt Q13547). Kind of assay: Inhibition of HDAC1 at 10 uM.
The target in another assay is Tubulin. In words: Inhibition of tubulin deacetylation in human HCT116 cells. The settings on record: hct-116. Format: cell-based.
The target of assay [6] is T1, Histone deacetylase 3. Kind of assay: Inhibition of HDAC3.
Assay [7] addresses Histone deacetylase 4 (Homo sapiens, UniProt P56524, H976Y). Kind of assay: Inhibition of HDAC4GOF mutant expressed in Escherichia coli.
In assay [8] the target is T2, Histone deacetylase 4. In words: Inhibition of wild type HDAC4 expressed in Escherichia coli.
Assay [9] addresses T5, Histone deacetylase 1. Kind of assay: Inhibition of HDAC1.
For assay [10], the target named is T6, Protein deacetylase HDAC6 (Homo sapiens, UniProt Q9UBN7).
T6 sequence (Q9UBN7 whole entry): T4 sequence (whole entry)
Kind of assay: Inhibition of HDAC6.

For assay [11], the target named is T1, Histone deacetylase 3. In words: Inhibition of HDAC3 at 5 uM.
Assay [12] addresses T4, Protein deacetylase HDAC6 (Homo sapiens). In words: Inhibition of HDAC6 at 9 nM.

T1 sequence (O15379 whole entry): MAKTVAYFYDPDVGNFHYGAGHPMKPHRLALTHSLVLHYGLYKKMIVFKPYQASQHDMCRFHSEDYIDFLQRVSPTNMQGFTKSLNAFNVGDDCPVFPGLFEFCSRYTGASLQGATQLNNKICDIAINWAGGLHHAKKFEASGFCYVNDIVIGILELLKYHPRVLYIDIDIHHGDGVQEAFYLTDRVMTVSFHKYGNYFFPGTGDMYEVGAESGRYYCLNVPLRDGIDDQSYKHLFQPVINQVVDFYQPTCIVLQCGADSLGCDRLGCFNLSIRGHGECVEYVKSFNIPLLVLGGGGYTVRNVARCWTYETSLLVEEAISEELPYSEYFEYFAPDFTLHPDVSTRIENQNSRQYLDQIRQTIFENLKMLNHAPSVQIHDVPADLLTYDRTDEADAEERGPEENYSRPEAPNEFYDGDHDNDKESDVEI
T2 sequence (P56524 whole entry): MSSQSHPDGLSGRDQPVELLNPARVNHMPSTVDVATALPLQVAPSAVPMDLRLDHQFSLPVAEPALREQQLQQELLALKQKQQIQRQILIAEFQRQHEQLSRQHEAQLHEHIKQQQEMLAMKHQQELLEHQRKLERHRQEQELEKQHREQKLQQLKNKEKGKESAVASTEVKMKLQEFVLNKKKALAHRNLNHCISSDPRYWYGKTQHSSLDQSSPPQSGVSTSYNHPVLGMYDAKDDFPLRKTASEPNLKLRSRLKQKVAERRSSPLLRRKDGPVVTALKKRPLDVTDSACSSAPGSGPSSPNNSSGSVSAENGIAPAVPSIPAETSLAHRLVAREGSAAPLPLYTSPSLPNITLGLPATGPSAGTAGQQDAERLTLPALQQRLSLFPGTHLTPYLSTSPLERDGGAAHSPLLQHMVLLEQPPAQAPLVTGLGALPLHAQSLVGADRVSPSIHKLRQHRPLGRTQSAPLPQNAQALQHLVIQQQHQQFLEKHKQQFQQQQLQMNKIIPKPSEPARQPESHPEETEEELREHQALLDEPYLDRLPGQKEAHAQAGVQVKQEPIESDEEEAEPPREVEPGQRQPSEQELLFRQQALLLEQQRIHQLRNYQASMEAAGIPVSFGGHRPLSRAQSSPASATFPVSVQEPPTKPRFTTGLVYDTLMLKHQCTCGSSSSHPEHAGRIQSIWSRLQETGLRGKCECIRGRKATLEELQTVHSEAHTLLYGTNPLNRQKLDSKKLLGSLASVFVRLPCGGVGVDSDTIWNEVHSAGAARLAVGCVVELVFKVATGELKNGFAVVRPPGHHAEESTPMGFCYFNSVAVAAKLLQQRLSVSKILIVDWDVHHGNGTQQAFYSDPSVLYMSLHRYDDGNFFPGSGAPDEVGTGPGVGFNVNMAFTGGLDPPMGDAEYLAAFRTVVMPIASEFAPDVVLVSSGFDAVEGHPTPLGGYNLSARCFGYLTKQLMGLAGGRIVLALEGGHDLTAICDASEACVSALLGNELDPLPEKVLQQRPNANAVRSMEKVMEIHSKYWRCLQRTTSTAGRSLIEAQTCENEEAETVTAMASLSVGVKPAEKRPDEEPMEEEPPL
T5 sequence (Q13547 whole entry): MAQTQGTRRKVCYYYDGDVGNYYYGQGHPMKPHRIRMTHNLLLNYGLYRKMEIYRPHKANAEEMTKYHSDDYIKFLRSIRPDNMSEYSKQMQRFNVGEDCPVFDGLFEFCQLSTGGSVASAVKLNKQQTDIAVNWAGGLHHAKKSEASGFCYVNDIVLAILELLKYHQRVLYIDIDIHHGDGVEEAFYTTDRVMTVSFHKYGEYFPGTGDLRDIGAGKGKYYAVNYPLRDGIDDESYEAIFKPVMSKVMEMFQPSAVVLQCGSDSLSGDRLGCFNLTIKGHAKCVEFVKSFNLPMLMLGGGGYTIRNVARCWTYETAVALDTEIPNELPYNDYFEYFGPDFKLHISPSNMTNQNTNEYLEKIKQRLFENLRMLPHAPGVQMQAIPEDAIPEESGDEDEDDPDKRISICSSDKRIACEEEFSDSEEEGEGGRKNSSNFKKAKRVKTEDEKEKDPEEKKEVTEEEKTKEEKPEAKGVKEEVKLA

Regarding `CS(=O)(=O)c1ccc(C(=O)N2CCc3ccccc32)s1`, the outcome (at Histone deacetylase 3 [1]; on Histone deacetylase 4 [2]; in assay [3]; at Histone deacetylase 1 [5]) was inactive. The compound further showed an inhibition in [4] of 47%.
With `CN(Cc1ccc2nccnc2c1)C(=O)c1ccc(C(=O)C(F)(F)F)s1`, the IC50 is 12000 nM against Tubulin; 670 nM against Histone deacetylase 3 [6]; 87 nM at Histone deacetylase 4 [7]; 98 nM against Histone deacetylase 4 [8]; 580 nM against Histone deacetylase 1 [9]; 89 nM in assay [10].
Consider `COc1ccc(CNC(=O)c2ccc(C(=O)C(F)(F)C(F)(F)F)s2)cc1`, for which the IC50 on Histone deacetylase 3 [6] is 2900 nM; against Histone deacetylase 1 [9], 4200 nM. Also, the outcome (at Histone deacetylase 4 [2]; in assay [3]; in [4]) was inactive.
As to `O=C(c1ccc(C2(C(F)(F)F)OCCO2)s1)N1CCc2ccccc21`, the result (at Histone deacetylase 3 [1]; at Histone deacetylase 4 [2]; in assay [3]; in [4]; on Histone deacetylase 1 [5]) was inactive.
Turning to `CN(Cc1ccccc1)C(=O)c1ccc(C(O)C(F)(F)F)s1` (stereo not given), the outcome (at Histone deacetylase 3 [1]; on Histone deacetylase 4 [2]; in assay [3]; in [4]; on Histone deacetylase 1 [5]) was inactive.
`O=C(c1ccc(C(=O)C(F)(F)F)s1)N1CCn2c(-c3ccccc3)cnc2C1` had an inhibition at Histone deacetylase 3 [11] of 44%. Further, the IC50 turned out to be 370 nM against Histone deacetylase 4 [7], 320 nM on Histone deacetylase 4 [8], 5500 nM on Histone deacetylase 1 [9] and 310 nM in assay [10].
With `O=C(c1ccc(B(O)O)s1)N1CCc2ccccc21`, the outcome (on Histone deacetylase 3 [1]; at Histone deacetylase 4 [2]; in assay [3]; at Histone deacetylase 1 [5]) was inactive. The compound also registered an inhibition in [4] of 42%.
Take `O=C(c1ccc(P(=O)(O)O)s1)N1CCc2ccccc21`: the result (at Histone deacetylase 3 [1]; at Histone deacetylase 4 [2]; in [3]; in [4]; at Histone deacetylase 1 [5]) was inactive.
As for `C[C@@H](NC(=O)c1ccc(C(=O)NO)s1)c1ccccc1`, the results for the IC50 at Histone deacetylase 3 [6], against Histone deacetylase 4 [7] and against Histone deacetylase 4 [8] were 10 nM, 100 nM and 2700 nM, respectively. In assay [12], the inhibition is 94%.
Regarding `CN(Cc1ccc2nccnc2c1)C(=O)c1ccc(C(=O)O)s1`, the result (on Histone deacetylase 3 [1]; at Histone deacetylase 4 [2]; in assay [3]; in assay [4]; on Histone deacetylase 1 [5]) was inactive.

The values are drawn from ChEMBL document CHEMBL1150306, “2-Trifluoroacetylthiophenes, a novel series of potent and selective class II histone deacetylase inhibitors” (Bioorg Med Chem Lett, 2008).
